Reference: ChEMBL document CHEMBL4152235, “Synthesis, anionophoric activity and apoptosis-inducing bioactivity of benzimidazolyl-based transmembrane anion transporters” (Eur J Med Chem, 2018)
Active and inactive are the calls of the source. The calls are words filed in the database; no cut-off is given here.

How the values were obtained:
[1] = Ionophoric activity across pyranine dye encapsulated pH 7 egg yolk L-alpha-phosphatidylcholine-based liposomal membranes assessed as chloride ion transport by measuring induction of pH discharge at 1.95 x 10^-3 mol% after 20 mins in presence of LiCl loaded external vesicles by fluorescence method
HeLa [2] = assay: Cytotoxicity against human HeLa cells assessed as reduction in cell viability up to 10 uM after 12 hrs in absence of chloride by MTT assay; type: functional, cell-based
[3] = Ionophoric activity across lucigenin probe encapsulated pH 7 egg yolk L-alpha-phosphatidylcholine-based large unilamellar vesicles loaded with Na2SO4 assessed as chloride ion efflux at 7.81 x 10^-3mol% after 20 mins in presence of NaCl loaded external vesicles by fluorescence method
MCF7 [4] = assay: Cytotoxicity against human MCF7 cells assessed as reduction in cell viability up to 10 uM after 12 hrs in absence of chloride by MTT assay; type: functional, cell-based
HeLa [5] = assay: Ionophoric activity across human HeLa cells assessed as chloride ion efflux at 10 uM after 3 hrs by acridine orange staining based fluorescence microscopic analysis; type: cell-based
[6] = Ionophoric activity across pyranine dye encapsulated pH 7 egg yolk L-alpha-phosphatidylcholine-based liposomal membranes assessed as chloride ion transport by measuring initial rate constant for induction of pH discharge at 4.88 x 10^-4 mol% after 20 mins in presence of NaCl loaded external vesicles by fluorescence method (reference value: 5.03 +/- 1.02 10^-3/min)
[7] = Ionophoric activity across pyranine dye encapsulated pH 7 egg yolk L-alpha-phosphatidylcholine-based liposomal membranes assessed as iodide ion transport by measuring induction of pH discharge at 1.95 x 10^-3 mol% after 20 mins in presence of NaI loaded external vesicles by fluorescence method
HeLa [8] = assay: Induction of apoptosis in human HeLa cells assessed as chromatin fragmentation at 2.5 uM after 24 hrs by Hoechst 33342 staining based fluorescence microscopic analysis; type: functional, cell-based
A549 [9] = assay: Cytotoxicity against human A549 cells assessed as reduction in cell viability at 50 uM after 48 hrs by MTT assay relative to control; type: functional; conditions: A549, 48 h
MCF7 [10] = assay: Cytotoxicity against human MCF7 cells assessed as reduction in cell viability after 48 hrs by MTT assay; type: functional, cell-based; conditions: MCF7, 48 h
HepG2 = assay: Cytotoxicity against human HepG2 cells assessed as reduction in cell viability at 50 uM after 48 hrs by MTT assay relative to control; type: functional; conditions: HepG2, 48 h
HeLa [11] = assay: Disruption of mitochondrial membrane potential in human HeLa cells assessed as decrease in ratio of red to green fluorescence at 5 to 10 uM after 24 hrs by JC1 staining based fluorescence microscopic analysis; type: functional, cell-based
[12] = Ionophoric activity across pyranine dye encapsulated pH 7 egg yolk L-alpha-phosphatidylcholine-based liposomal membranes assessed as chloride ion transport by measuring induction of pH discharge after 20 mins in presence of NaCl loaded external vesicles by fluorescence method relative to m-Bimbe
[13] = Ionophoric activity across pyranine dye encapsulated pH 7 egg yolk L-alpha-phosphatidylcholine-based liposomal membranes assessed as chloride ion transport by measuring induction of pH discharge at 1.95 x 10^-3 mol% after 20 mins in presence of RbCl loaded external vesicles by fluorescence method
HeLa [14] = assay: Cytotoxicity against human HeLa cells assessed as reduction in cell viability at 50 uM after 48 hrs by MTT assay relative to control; type: functional
[15] = Ionophoric activity across pyranine dye encapsulated pH 7 egg yolk L-alpha-phosphatidylcholine-based liposomal membranes assessed as chloride ion transport by measuring induction of pH discharge at 1.95 x 10^-3 mol% after 20 mins in presence of CsCl loaded external vesicles by fluorescence method
[16] = Ionophoric activity across pyranine dye encapsulated pH 7 egg yolk L-alpha-phosphatidylcholine-based liposomal membranes assessed as nitrate ion transport by measuring induction of pH discharge at 1.95 x 10^-3 mol% after 20 mins in presence of NaNO3 loaded external vesicles by fluorescence method
[17] = Ionophoric activity across pyranine dye encapsulated pH 7 POPC-cholesterol-based liposomal membranes assessed as chloride ion transport by measuring induction of pH discharge at 7.81 x 10^-3mol% after 20 mins in presence of NaCl loaded external vesicles by fluorescence method
[18] = Ionophoric activity across pyranine dye encapsulated pH 7 egg yolk L-alpha-phosphatidylcholine-based liposomal membranes assessed as chloride ion transport by measuring induction of pH discharge at 1.95 x 10^-3 mol% after 20 mins in presence of KCl loaded external vesicles by fluorescence method
[19] = Ionophoric activity across pyranine dye encapsulated pH 7 egg yolk L-alpha-phosphatidylcholine-based liposomal membranes assessed as chloride ion transport by measuring induction of pH discharge after 20 mins in presence of NaCl loaded external vesicles by fluorescence method
HeLa [20] = assay: Induction of apoptosis in human HeLa cells assessed as chromatin condensation at 2.5 uM after 24 hrs by Hoechst 33342 staining based fluorescence microscopic analysis; type: functional, cell-based
MCF7 [21] = assay: Cytotoxicity against human MCF7 cells assessed as reduction in cell viability up to 10 uM after 12 hrs in presence of chloride by MTT assay; type: functional, cell-based
[22] = Ionophoric activity across pyranine dye encapsulated pH 7 egg yolk L-alpha-phosphatidylcholine-based liposomal membranes assessed as chloride ion transport by measuring initial rate constant for induction of pH discharge at 9.77 x 10^-4 mol% after 20 mins in presence of NaCl loaded external vesicles by fluorescence method (reference value: 5.03 +/- 1.02 10^-3/min)
[23] = Ionophoric activity across pyranine dye encapsulated pH 7 egg yolk L-alpha-phosphatidylcholine-based liposomal membranes assessed as bromide ion transport by measuring induction of pH discharge at 1.95 x 10^-3 mol% after 20 mins in presence of NaBr loaded external vesicles by fluorescence method
A549 [24] = assay: Cytotoxicity against human A549 cells assessed as reduction in cell viability after 48 hrs by MTT assay; type: functional, cell-based; conditions: A549, 48 h
HeLa [25] = assay: Cytotoxicity against human HeLa cells assessed as reduction in cell viability up to 10 uM after 12 hrs in presence of chloride by MTT assay; type: functional, cell-based
[26] = Ionophoric activity across pyranine dye encapsulated pH 7 egg yolk L-alpha-phosphatidylcholine-based liposomal membranes assessed as chloride ion transport by measuring initial rate constant for induction of pH discharge at 7.81 x 10^-3 mol% after 20 mins in presence of NaCl loaded external vesicles by fluorescence method (reference value: 5.03 +/- 1.02 10^-3/min)
HeLa [27] = assay: Cytotoxicity against human HeLa cells assessed as reduction in cell viability after 48 hrs by MTT assay; type: functional, cell-based
[28] = Ionophoric activity across pyranine dye encapsulated pH 7 egg yolk L-alpha-phosphatidylcholine-based liposomal membranes assessed as chloride ion transport by measuring induction of pH discharge at 1.95 x 10^-3 mol% after 20 mins in presence of NaCl loaded external vesicles by fluorescence method
[29] = Ionophoric activity across pyranine dye encapsulated pH 7 egg yolk L-alpha-phosphatidylcholine-based liposomal membranes assessed as chloride ion transport by measuring initial rate constant for induction of pH discharge at 1.95 x 10^-3 mol% after 20 mins in presence of NaCl loaded external vesicles by fluorescence method (reference value: 5.03 +/- 1.02 10^-3/min)

SMILES: O=[N+]([O-])c1cc(-c2nc3ccc(C(F)(F)F)cc3[nH]2)cc(-c2nc3ccc(C(F)(F)F)cc3[nH]2)c1
- Activity [1]: Active
- Activity (HeLa [2]): Active
- Activity [3]: inactive
- Activity (MCF7 [4]): Active
- Activity (HeLa [5]): Active
- K [6]: 2.11 ×10⁻² /min
- Activity [7]: inactive
- Activity (HeLa [8]): Active
- inhibition at 50 µM (A549 [9]): 100%
- IC50 (MCF7 [10]): 9400 to 9700 nM
- inhibition at 50 µM (HepG2): 101%
- Activity (HeLa [11]): Active
- fold change (FC) [12]: 1720
- Activity [13]: Active
- inhibition at 50 µM (HeLa [14]): 94.9%
- Activity [15]: Active
- Activity [16]: inactive
- Activity [17]: inactive
- Activity [18]: Active
- EC50 [19]: 3.76 ×10⁻³ mol%
- EC50 ([19]; read-out: EC50): 50 nM
- Activity (HeLa [20]): Active
- Activity (MCF7 [21]): Active
- K [22]: 4.08 ×10⁻² /min
- Activity [23]: inactive
- IC50 (A549 [24]): 3800 to 3900 nM
- Activity (HeLa [25]): Active
- K [26]: 1.87 ×10⁻¹ /min
- IC50 (HeLa [27]): 1900 nM
- Activity [28]: Active
- K [29]: 8.14 ×10⁻² /min
